Measured values: US20060018851A1, “Methods and compositions for preventing and treating hyperpigmentation of skin” (ProCyte Corporation, priority 2004, published 2006)

System: B16 melanocytes
Assay: Melanin (pigment) produced by B16 melanocytes in culture; culture media analyzed for pigment content after 5 days, pictures of culture plates
Assay type: cell-based
Conditions: for Percent Inhibition of Pigmentation in Melanocytes: 5 days
Description: The effect of peptide manganese complexes on pigmentation was determined by determining the amount of melanin produced by B16 melanocytes in culture. Various amounts of a representative peptide manganese complex (glycyl-L-histidyl-L-lysine:manganese) were added to the culture medium. After 5 days, the culture media was collected and analyzed for pigment content. In addition, pictures were taken of the culture plates.

Compound | inhibition of pigment formation compared with GHK-Mn (200 ug/mi kojic acid vs 25 ug/ml GHK-Mn) | Percent Inhibition of Pigmentation in Melanocytes (0.1 ug/mL, Plate I) [%] | Percent Inhibition of Pigmentation in Melanocytes (0.1 ug/mL, Plate II) [%] | Percent Inhibition of Pigmentation in Melanocytes (1.0 ug/ml, Plate I) [%] | Percent Inhibition of Pigmentation in Melanocytes (1.0 ug/ml, Plate II) [%] | Percent Inhibition of Pigmentation in Melanocytes (10 ug/ml, Plate I) [%] | Percent Inhibition of Pigmentation in Melanocytes (10 ug/ml, Plate II) [%] | inhibition of pigment formation compared with kojic acid (25 ug/ml GHK-Mn vs 200 ug/mi kojic acid) | formation of pigment inhibited relative to the control (highest concentration tested) | formation of melanin pigments in cultured melanocytes (Table 4, FIG. 1) (various concentrations) | visual examination of culture flasks: secreted melanin (FIG. 2) (vs PBS control flask) | melanin in the cells, high magnification photograph (FIG. 3B) (vs control melanocyte culture (FIG. 3A))
O=c1cc(CO)occ1O [kojic acid, 5-hydoxy-4-pyran-4-one-2-methyl, reference compound] | approximately equivalent |  |  |  |  |  |  |  |  |  |  | 
glycyl-L-histidyl-L-lysine:manganese(II) [GHK-Mn] |  | 42 | 28 | 68 | 35 | 88 | 81 | approximately equivalent to that of 200 ug/mi of kojic acid | more than 80% | inhibited the formation of melanin pigments in cultured melanocytes in a dose responsive manner | contains relatively little melanin | containing much less melanin in the cells
